d = 2'-deoxy (DNA); m = 2'-O-methyl
Key:
rat pituitary cells = conditions: read-out: EC50, stimulates GH release; cited from earlier work
[1] = target: human recombinant GHS-R1a (Homo sapiens, UniProt Q92847); conditions: cited from earlier work
[2] = tested on: obese animals (high fat diet); assay: Physiological effect of tabimorelin conjugated antisense oligonucleotides in a high-fat diet model of obesity; assay type: in vivo; conditions: 10 doses in 12 days of 30 μg intranasally
Description: Animals were fed a high fat diet (HFD) (TD.06414, 60% fat, Harlan) or a standard diet (Control diet: 2014, Harlan) for 12 weeks. Those obese animals that weighed more than the mean body weight of the lean animals plus 2 times the lean standard deviation were selected:
Obese BW>lean BW mean+2×lean SD
The day of administration animals were fasted for 8 hours. Under isofluorane anesthesia, 10 doses in 12 days of 30 μg of the following molecules were intranasally administered (5 μl per nostril): • Vehicle (VH) (1×PBS) • TAB-NS-ASO4 (NS)(Non-sense sequence directed with tabimorelin) • TAB-SOCS3-ASO4 (SOCS3)(antisense sequence against socs3 mRNA directed with tabimorelin) • TAB-PTP1B-ASO4 (PTP1B)(antisense sequence against ptp1b mRNA directed with tabimorelin
Body weight and food intake were daily monitored. 48 hours after the last administration animals were sacrificed and tissues collected for further analysis.

Chain of human recombinant GHS-R1a (Q92847 whole entry): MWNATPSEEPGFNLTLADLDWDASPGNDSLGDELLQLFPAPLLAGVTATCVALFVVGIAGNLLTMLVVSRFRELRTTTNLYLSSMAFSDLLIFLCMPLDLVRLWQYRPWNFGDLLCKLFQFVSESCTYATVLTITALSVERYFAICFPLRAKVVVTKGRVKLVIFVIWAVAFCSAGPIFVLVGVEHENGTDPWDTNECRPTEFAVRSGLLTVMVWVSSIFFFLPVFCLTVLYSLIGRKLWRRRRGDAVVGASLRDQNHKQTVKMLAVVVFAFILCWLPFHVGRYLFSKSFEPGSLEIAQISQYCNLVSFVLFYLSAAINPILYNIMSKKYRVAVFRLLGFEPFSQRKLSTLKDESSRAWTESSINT

Row | Molecule | EC50 (rat pituitary cells) [nM] | Ki [1] [nM] | Daily BW gain (mean of changes in daily body weight) [2] | Cumulative body weight (BW) gain ([2]; vs VH and NS) | Cumulative food intake (FI) ([2]; vs VH and NS) | Daily FI (mean of daily food ingestion) ([2]; vs VH and NS)
1 | CNC(=O)[C@@H](Cc1ccccc1)N(C)C(=O)[C@@H](Cc1ccc2ccccc2c1)N(C)C(=O)/C=C/CC(C)(C)N [Tabimorelin] | 2.7 | 50 |  |  |  | 
2 | TAB-SOCS3-ASO4: antisense sequence against socs3 mRNA directed with tabimorelin; 20-mer with 10 DNA core and 2′-o-methyl flanks (antisense GUGGCGCTGGTCCGAGCTGT; sugars from the 5' end m5 d10 m5, backbone and methylation of C not given here; tabimorelin conjugate attached) |  |  | not being significantly different between groups, a decrease was observed | gained significantly less weight than control animals | significantly decreased | decreased

Source: patent US20170073679A1, “Compositions and Methods for Selective Delivery of Oligonucleotide Molecules to Cell Types” (nLife Therapeutics, S.L., priority 2012, published 2017)
